Literature values in publication PMC12649378, “Comparative Pharmacokinetics and Safety of a Micellar Chrysin–Quercetin–Rutin Formulation: A Randomized Crossover Trial” (Antioxidants, 2025).
Counter-ions that a name gives are not always drawn.

Columns and labels:
[1] = not given; remark: listed apart in the source

| circulating metabolite concentration exceeding parent chrysin concentrations (in vivo) | aqueous solubility [1] | weak acidity (pH) [1] | peak plasma levels (humans, 400 mg of unformulated chrysin) | Structure (SMILES) |
| --- | --- | --- | --- | --- |
| ~ 30 fold |  |  |  | O=c1cc(-c2ccccc2)oc2cc(OS(=O)(=O)O)cc(O)c12 [chrysin sulfate] |
|  | < 1 µg/mL | ≈ 6.7 | 3 to 16 ng/mL | O=c1cc(-c2ccccc2)oc2cc(O)cc(O)c12 [chrysin, 5,7-dihydroxyflavone] |
